Source: patent publication US6518012B1, “Method for regulating the expression of MHC antigens and CD40 by inhibitors of histone deacetylation” (Health Research, Inc., priority 1999, dated 2003)

Legend:
[1] = tested on: MHC class II protein on the cell surface; experiment: Cell surface MHC class II protein by flow cytometry on Colon 26 and J558; type: cell-based, mouse; conditions: J558; G2/M arrest experiment with nocodazole; data not shown
Experimental: To determine the effect of TSA on cell surface protein expression, the J558 cell line was subjected to flow cytometric analyses as follows. Flow cytometric analyses were conducted by standard methods using cells fixed with 1.0% paraformaldehyde and analyzed on the FACScan (Becton Dickinson). Cell cycle analyses were carried out by flow cytometry with PI staining of genomic DNA. Cells were fixed and permeablized in methanol, treated with RNaseA and analyzed for DNA content by determination of FL3-area on the FACScan. The FL3-area data were analyzed with the ModFit software for determination of the percent cells in each phase of the cell cycle. In some cases, fluorescein isothiocyanate (FITC)-conjugated antibody staining was conducted prior to PI treatment and surface staining was analyzed as a function of cell cycle phase. Apoptosis was analyzed by staining with annexin-V directly conjugated with either FITC or RPE and by sub-G0 analysis of DNA staining. Expression levels without treatment are shown as shaded peaks, IFNγ treated cell expression is plotted by a thin line while the level of expression on TSA treated cells is represented by a heavy line. Isotype controls were analyzed and, in each case, fell on or below the levels shown for control cells. MC and Colon 26 treatments are shown for 50 nM TSA for 48 hours, while J558 treatment is for 25 nM TSA for 24 hours. All IFNγ treatments were 100 U/ml for the same length of time as the corresponding TSA treatment. The percent of cells staining positive for MHC class II or CD40 expression is indicated below each histogram. Since all cells were positive for MHC class I expression, the number under the histogram represents -fold change of expression calculated from the mean channel-shift after treatment relative to untreated cells. Data are representative of at least three independent experiments. Of the 13 markers analyzed on J558 cells, only class I, II and CD40 were enhanced, while levels of several non-expressed antigens were not elicited (including CD25, B7 integrin, CD40L, H2K^k and IA^k) while other markers, which were expressed, were not altered (including CD44, CD54, CD80, CD86 and CD119) by TSA treatment. […] The highest expression (21-fold induction) was achieved on J558 cells after 24 hr by 25 nM TSA. […] The separation of control and IFNγ curves in the CD40, J558 experiment depicted in FIG. 8 represents a mean channel fluorescence difference of only 1.3 and was not seen on independent replicates of the experiment.
TSA has been described as a cell cycle inhibitor that induces both G1 and especially G2/M blocks (Bestor, 1998, Nature, 393:311-312; Yoshida et al., 1988, Exp. Cell Res. 177:122-131). MHC class II, but not class I, has been reported (Inokoshi et al., 1999, Biochem. Biophys. Res. Commun., 256:372-376; Monroe et al., 1983, J. Immunol., 130:626-631) to be regulated differentially during the cell cycle. Therefore the cell cycle of the cell lines used in the present invention was analyzed by DNA staining and flow cytometry with each of the treatment conditions under study. […] Two additional methods were used to analyze cell cycle effects on MHC expression. Since it has been reported that TSA arrests cell cycle mainly in G2/M, and class II has been reported to accumulate in G2/M (Monroe et al., 1983, supra), experiments were designed to essentially arrest 100% of J558 cells in G2/M with nocodazole. […] From the above experiments, it can be concluded that DAIs have specific effects on MHC class I and II, and CD40 gene expression, which is likely not a result of its action on the cell cycle.

cell lines employed = experiment: Toxicity of deacetylase inhibitors (lift-off, trypan-blue dye exclusion, laddering, PI/annexin-V flow cytometry); type: cell-based; conditions: 1 mM Na-butyrate for 12-48 hr
Experimental: Two representative DAIs, TSA and NaBu were used for this illustration. […] In some experiments, 100 U/ml γ-IFN was added with and without the deacetylase inhibitor.

HLA-DRα mRNA [2] = experiment: HLA-DRα mRNA by standard PCR and real-time PCR in human cell lines JAR and SK-N-MC; type: cell-based; conditions: JAR
Experimental: (§1) To determine the effect of DAIs on HLA-DRα mRNA, cytoplasmic RNA was isolated from untreated and treated human trophoblast cell line JAR using standard techniques (RNeasy System from Qiagen). Standard PCR was performed using primers for DR and CIITA (Murphy et al., 1998, Reprod Dev., Chin et al., 1994, Immunity 1:687-697). Other primers used included human and mouse GAPDH (Clontech) and forward primer 5′-[…]-3′ (SEQ ID NO:25) and reverse primer 5′-[…]-3′ (SEQ ID NO:26) for mouse CIITA. PCR products were amplified with GOLD Taq for 10 min at 95° C., then 95° C. for 30 sec, 60° C. for 60 sec (25-45 cycles), then an extension at 60° C. for 10 min.
(§2) Oligonucleotide primers and TaqMan 5′-6-FAM and 3′-TAMRA-labeled probes were synthesized in the RPCI Biopolymer Facility. Primer and probe sequences are listed under Sequence Listing and also in FIG. 9. Sequences were designed using standard software (PrimerExpress software, PE Biosystems) except for human GAPDH.
(§3) Realtime PCR reactions contained TaqMan Universal PCR Master Mix (PE Biosystems), primers at 300 nM, and probes at optimal concentrations (150-225 nM depending on gene). Reactions were carried out on an ABI PRISM 7700 Sequence Detection System (PE Biosystems). Cycling conditions were 50° C. for 2 min, 95° C. for 10 min, then 60 cycles of 95° C. for 15 sec, 60° C. for 1 min. PCR samples were run in triplicate. The detection system and quantitative PCR was carried out as described by Williamson et al. (1995, Genet Res. 65:83-93). The threshold cycle number CT corresponded to the cycle number, at which the fluorescent emission reaches 10 standard deviations above the mean fluorescent emission, measured during the early ‘baseline’ cycles of the PCR. The CT values for triplicates were averaged and normalized to GAPDH levels. […] Assuming reverse transcription efficiencies were approximately the same for each sample, relative amounts of mRNA using the comparative CT method. Fold changes in mRNA levels were calculated as 2^x where x=the difference between normalized CT values of the control and experimental samples.
To evaluate the effects of DAIs on human cells, the human trophoblast cell line was treated with 100 nM Trichostatin A (TSA), IFNγ (100 U/ml) or a combination of TSA and IFNγ for 12 hours. RNA was isolated and real time quantitative RT-PCR was carried out. The fold increase in mRNA over the control was calculated.

[3] = tested on: class II transactivator (CIITA) mRNA; experiment: CIITA mRNA by standard PCR and real-time PCR in human cell lines JAR and SK-N-MC; type: cell-based
Experimental: as §1, §2, §3
[…] RNA was isolated and real time quantitative RT-PCR was carried out. The fold increase in mRNA over the control was calculated.

HLA-DRα mRNA [4] = experiment: HLA-DRα mRNA by standard PCR and real-time PCR in human cell lines JAR and SK-N-MC; type: cell-based
IAα mRNA = experiment: MHC class II (IAα) mRNA by RT-PCR and real-time PCR in mouse tumor models; type: cell-based
Experimental: as §1
(§4) In order to obtain more quantitative information on fold changes in DR and CIITA after treatment with the deacetylase inhibitors, a real time fluorescence technique capable of quantitating low copy numbers of transcripts was carried out as follows. Oligonucleotide primers and TaqMan 5′-6-FAM and 3′-TAMRA-labeled probes were synthesized in the RPCI Biopolymer Facility. Primer and probe sequences are listed under Sequence Listing and also in FIG. 9. Sequences were designed using standard software (PrimerExpress software, PE Biosystems) except for human GAPDH.
(§5) Realtime PCR reactions contained TaqMan Universal PCR Master Mix (PE Biosystems), primers at 300 nM, and probes at optimal concentrations (150-225 nM depending on gene). Reactions were carried out on an ABI PRISM 7700 Sequence Detection System (PE Biosystems). Cycling conditions were 50° C. for 2 min, 95° C. for 10 min, then 60 cycles of 95° C. for 15 sec, 60° C. for 1 min. PCR samples were run in triplicate. The detection system and quantitative PCR was carried out as described by Williamson et al. (1995, Genet Res. 65:83-93). The threshold cycle number CT corresponded to the cycle number, at which the fluorescent emission reaches 10 standard deviations above the mean fluorescent emission, measured during the early ‘baseline’ cycles of the PCR. The CT values for triplicates were averaged and normalized to GAPDH levels. […] In such cases, in order to calculate a minimum fold change for other samples in the same group, the CT value was arbitrarily set at 40. […] Assuming reverse transcription efficiencies were approximately the same for each sample, relative amounts of mRNA using the comparative CT method. Fold changes in mRNA levels were calculated as 2^x where x=the difference between normalized CT values of the control and experimental samples.
(§6) To determine if the effect of DAIs on MHC class II was manifested in other tumors and in different species, the effect of TSA was tested on four commonly used mouse tumor models: the SaI fibrosarcoma, the Colon 26 adenocarcinoma, the J558 plasmacytoma and the P815 mastocytoma. TSA induced class II in all four mouse tumors examined, while the effects of IFNγ were variable (FIG. 4). Data presented for each cell line represents optimal incubation time and concentration of TSA and is compared with 100 U/ml of IFNγ at the same time point. Numbers over bars represents fold changes. […] Colon 26 and J558 that differed strikingly in their reactivity to IFNγ were selected for further evaluation. RT-PCR and real time PCR was used to examine induction of CIITA and IAα by TSA and IFNγ. A20, a constitutively positive B cell line was used as a positive control. The results are shown in FIGS. 5A-D. The numbers over bars represent fold changes. […] Since the classical IFNγ inducible genes IRF-1 and GBP as well as MHC class I mRNA were not induced by IFNγ in J558 (data not shown), this cell line may have a signaling defect in the IFNγ pathway. Unexpectedly however, and unlike either the MC or Colon 26 cells, TSA induced both CIITA (102-fold) and Iα (537-fold) in J558 as shown in FIGS. 5B and 5D.

CIITA mRNA = CIITA mRNA by RT-PCR and real-time PCR in mouse tumor cells Colon 26 and J558; type: cell-based
Experimental: as §1, §4, §5, §6

COC(=O)Nc1nc2ccc(C(=O)c3cccs3)cc2[nH]1 [Nocodazole, nocodazole]
MHC class II positive cells [1]: 23%

CCCC(=O)[O-].[Na+] [sodium butyrate]
toxicity (cell lines employed): non toxic | fold increase in HLA-DRα (MHC class II) mRNA over the control (HLA-DRα mRNA [2]; real time quantitative RT-PCR, 100 nM TSA, IFNγ 100 U/ml or combination for 12 hours, sodium butyrate (FIG. 2)): 12 fold | levels of mRNA for DR (HLA-DRα mRNA [2]; standard PCR, 100 nM or 250 nM TSA or 1 mM sodium butyrate): substantial increase | increase in class II transactivator (CIITA) ([3]; JAR, real time PCR, sodium butyrate (FIG. 2)): no increase | CIITA transcription ([3]; JAR, standard PCR at 35 cycles, 100 nM or 250 nM TSA or 1 mM sodium butyrate): undetectable | CIITA mRNA fold change ([3]; MC cells, real time PCR up to 60 cycles, 100 nM TSA 24 hr, NaBu 1 mM 48 hr, IFNγ): no activation | CIITA transcription ([3]; SK-N-MC, routine RT-PCR at 35 cycles, 100 nM TSA 24 hours, 1 mM NaBu 48 hours, IFNγ): undetectable | fold increase in expression of DR (HLA-DRα mRNA [4]; MC cells, real time PCR, 100 nM TSA 24 hr, NaBu 1 mM 48 hr, IFNγ any concentration or time point): 88 fold | levels of mRNA for HLA-DRα (DR) (HLA-DRα mRNA [4]; SK-N-MC, RT-PCR, 100 nM TSA 24 hours, 1 mM NaBu 48 hours, IFNγ): substantial increase

B1: IFNγ: gamma-interferon, cytokine used as comparator at 100 U/ml (protein, UniProt P01579 24-161, looked up)
Interferon gamma: QDPYVKEAENLKKYFNAGHSDVADNGTLFLGILKNWKEESDRKIMQSQIVSFYFKLFKNFKDDQSIQKSVETIKEDMNVKFFNSNKKKRDDFEKLTNYSVTDLNVQRKAIHELIQVMAELSPAAKTGKRKRSQMLFRG
Iα (class II) fold induction (IAα mRNA): did not activate | CIITA fold induction (CIITA mRNA): did not activate
